From ChEMBL document CHEMBL3259781 (J Med Chem, 2014) come the findings set out here.

In one data set the target is T1, Adenosine receptor A2b (Homo sapiens, UniProt P29275).
T1 sequence (P29275 whole entry): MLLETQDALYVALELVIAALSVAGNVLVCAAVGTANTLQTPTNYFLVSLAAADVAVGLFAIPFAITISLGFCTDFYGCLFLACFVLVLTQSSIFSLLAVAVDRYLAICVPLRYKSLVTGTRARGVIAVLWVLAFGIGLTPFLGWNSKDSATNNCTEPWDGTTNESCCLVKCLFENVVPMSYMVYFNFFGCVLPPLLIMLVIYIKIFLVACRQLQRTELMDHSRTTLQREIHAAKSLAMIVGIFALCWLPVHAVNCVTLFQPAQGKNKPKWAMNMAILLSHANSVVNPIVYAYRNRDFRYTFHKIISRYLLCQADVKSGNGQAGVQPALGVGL

For data set [1], the target named is T2, Adenosine receptor A1 (Homo sapiens, UniProt P30542).
T2 sequence (P30542 whole entry): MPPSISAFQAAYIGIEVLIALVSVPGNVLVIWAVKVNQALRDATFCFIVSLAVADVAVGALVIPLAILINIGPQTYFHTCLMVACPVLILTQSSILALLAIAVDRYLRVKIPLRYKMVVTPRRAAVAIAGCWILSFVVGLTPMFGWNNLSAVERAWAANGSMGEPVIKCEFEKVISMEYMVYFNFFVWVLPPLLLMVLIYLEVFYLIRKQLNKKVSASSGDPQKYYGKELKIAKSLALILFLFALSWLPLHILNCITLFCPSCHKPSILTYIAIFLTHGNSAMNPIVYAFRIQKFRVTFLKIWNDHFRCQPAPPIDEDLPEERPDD

Data set [2] has as its target Adenosine receptor A2a (Rattus norvegicus, UniProt P30543). The experiment in a line: Binding affinity to rat recombinant adenosine receptor A2a.
For data set [3], the target named is T3, Adenosine receptor A2a (Homo sapiens, UniProt P29274).
T3 sequence (P29274 whole entry): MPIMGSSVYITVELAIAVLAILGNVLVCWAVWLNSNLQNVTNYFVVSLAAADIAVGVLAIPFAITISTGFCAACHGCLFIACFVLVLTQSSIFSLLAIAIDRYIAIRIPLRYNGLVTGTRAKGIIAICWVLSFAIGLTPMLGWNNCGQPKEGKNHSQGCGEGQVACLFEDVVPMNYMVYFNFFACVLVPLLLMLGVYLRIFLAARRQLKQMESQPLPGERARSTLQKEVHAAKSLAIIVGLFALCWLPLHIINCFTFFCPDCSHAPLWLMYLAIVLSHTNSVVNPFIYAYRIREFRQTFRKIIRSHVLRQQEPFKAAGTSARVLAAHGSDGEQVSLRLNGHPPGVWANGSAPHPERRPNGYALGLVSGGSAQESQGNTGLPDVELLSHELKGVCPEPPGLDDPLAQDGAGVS
Data set [4] deals with T2, Adenosine receptor A1. This is another data set of the same source.
Data set [5] concerns Rattus norvegicus. Put plainly: Anticataleptic activity in po dosed rat assessed as inhibition of haloperidol-induced catalepsy. The data set is classed as functional.
Data set [6] is filed under the species Rattus norvegicus. Put plainly: Anticataleptic activity in rat assessed as minimum efficacious dose. It is filed as functional. Conditions: read-out: MED.
For another data set, the species on record is Homo sapiens. The experiment in a line: Selectivity ratio of Ki for human recombinant adenosine A1 receptor to Ki for human recombinant adenosine receptor A2a.
Data set [7] in a line: Oral bioavailability in rat. Conditions: in vivo. It is filed as ADME, organism-based.
Data set [8] addresses T4, Adenosine receptor A1 (Rattus norvegicus, UniProt P25099).
T4 sequence (P25099 whole entry): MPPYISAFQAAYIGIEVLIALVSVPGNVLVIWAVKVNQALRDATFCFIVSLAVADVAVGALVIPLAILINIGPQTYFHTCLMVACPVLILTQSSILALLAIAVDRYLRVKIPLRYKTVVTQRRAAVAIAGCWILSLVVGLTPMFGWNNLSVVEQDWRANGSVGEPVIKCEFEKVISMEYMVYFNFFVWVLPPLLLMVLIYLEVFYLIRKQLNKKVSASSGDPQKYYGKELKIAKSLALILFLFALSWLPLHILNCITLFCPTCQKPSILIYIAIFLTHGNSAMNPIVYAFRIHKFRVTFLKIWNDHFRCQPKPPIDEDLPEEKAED
The experiment in a line: Binding affinity to rat recombinant adenosine A1 receptor.

Another data set addresses T5, Adenosine receptor A3 (Homo sapiens, UniProt P0DMS8).
T5 sequence (P0DMS8 whole entry): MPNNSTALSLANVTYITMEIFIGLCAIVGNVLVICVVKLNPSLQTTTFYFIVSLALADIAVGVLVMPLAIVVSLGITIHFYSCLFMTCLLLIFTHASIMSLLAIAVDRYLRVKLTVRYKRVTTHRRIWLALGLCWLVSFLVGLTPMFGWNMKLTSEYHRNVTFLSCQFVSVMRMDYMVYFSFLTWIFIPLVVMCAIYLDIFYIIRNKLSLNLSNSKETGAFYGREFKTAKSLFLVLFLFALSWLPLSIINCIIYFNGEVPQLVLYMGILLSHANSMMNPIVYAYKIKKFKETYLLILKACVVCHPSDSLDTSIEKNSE
Put plainly: Binding affinity to human recombinant adenosine A3 receptor.

The target in data set [9] is T3, Adenosine receptor A2a. The source holds these as a separate data set.
In data set [10] the test system is Rattus norvegicus. The experiment in a line: Anticataleptic activity in rat assessed as inhibition at 3 mg/kg, po after 1 hr. It is filed as functional.
In data set [11] the test system is Rattus norvegicus. Put plainly: Anticataleptic activity in rat assessed as inhibition at 3 mg/kg, po after 4 hrs. The data set is classed as functional.
Data set [12] is filed under the species Rattus norvegicus. The experiment in a line: Systemic vasodilation in rat. The data set is classed as functional.
The subject of data set [13] is Rattus norvegicus. The experiment in a line: Induction of hypolocomotion in po dosed rat assessed as reduction in motor deficts. The data set is classed as functional.
A short description of data set [14]: Plasma clearance in rat. The data set is classed as ADME, organism-based.
A short description of data set [15]: Volume of distribution in dog. Conditions: in vivo. The data set is classed as ADME, organism-based, Canis lupus familiaris.
Data set [16] is described as follows: Half life in dog. The data set is classed as ADME, organism-based, Canis lupus familiaris. Conditions: in vivo.
Data set [17] is described as follows: Plasma clearance in dog. It is filed as ADME, organism-based, Canis lupus familiaris.
Data set [18] in a line: Volume of distribution in rat. Conditions: in vivo. The data set is classed as ADME, organism-based.
The nature of data set [19]: Half life in rat. The data set is classed as ADME, organism-based. Conditions: in vivo.
Data set [20] in a line: Ratio of drug level from brain to plasma in iv dosed rat after 0.5 hrs. It is filed as ADME, organism-based. Conditions: read-out: BPR.
For data set [21], the species on record is Rattus norvegicus. The experiment in a line: Anticataleptic activity in rat assessed as inhibition of haloperidol-induced catalepsy after 1 hr. The data set is classed as functional.
The species entered for data set [22] is Rattus norvegicus. The experiment in a line: Anticataleptic activity in rat assessed as inhibition of haloperidol-induced catalepsy after 2 hrs. It is filed as functional.

Chain of Adenosine receptor A2a (Rattus norvegicus, UniProt P30543) (P30543 whole entry): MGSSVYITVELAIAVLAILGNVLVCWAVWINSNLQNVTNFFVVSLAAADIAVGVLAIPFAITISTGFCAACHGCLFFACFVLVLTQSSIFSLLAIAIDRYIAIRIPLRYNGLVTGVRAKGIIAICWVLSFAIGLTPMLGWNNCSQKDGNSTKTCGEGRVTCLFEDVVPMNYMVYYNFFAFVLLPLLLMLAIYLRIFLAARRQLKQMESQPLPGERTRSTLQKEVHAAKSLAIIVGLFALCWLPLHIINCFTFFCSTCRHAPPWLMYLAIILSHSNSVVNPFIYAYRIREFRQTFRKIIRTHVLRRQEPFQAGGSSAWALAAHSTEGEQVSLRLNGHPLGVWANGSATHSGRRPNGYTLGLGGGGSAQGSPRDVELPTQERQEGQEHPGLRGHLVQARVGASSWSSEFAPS

With `Nc1nc(OCCc2ccc(Cl)cc2)nc2c1ncn2[C@@H]1O[C@H](CO)[C@@H](O)[C@H]1O` [SONEDENOSON], on Adenosine receptor A2b, the EC50 was 10000 nM. The same compound returned a Ki at Adenosine receptor A1 [1] of 10000 nM.
Consider `Nc1nc(Nc2ccccc2)nc2c1ncn2[C@@H]1O[C@H](CO)[C@@H](O)[C@H]1O`, for which, on Adenosine receptor A2a [2], the Ki turned out to be 100 nM.
On to `CCn1nnc([C@H]2O[C@@H](n3cnc4c(N)nc(N[C@H](CO)Cc5ccccc5)nc43)[C@H](O)[C@@H]2O)n1` [GW-328267], for which the half-maximal effective concentration (EC50) on Adenosine receptor A2a [3] came to 9 nM.
For `Cc1cc(C)n(-c2cc(NC(=O)COc3cccc(CN(C)C)c3)nc(-c3ccc(C)o3)n2)n1`, the affinity on Adenosine receptor A1 [4] corresponds to a Ki of 40 nM. Also, the ED50 with Rattus norvegicus [5] is 10 mg/kg.
Regarding `Cc1cc(Cn2nnc3c(-c4ccco4)nc(N)nc32)ccc1N` [VIPADENANT], the minimal effective dose in the data set filed under Rattus norvegicus [6] was determined as 0.1 mg/kg.
Regarding `CC(C)c1nc(-c2nccs2)c2sccc2n1`, the Ratio Ki in the data set listed under Homo sapiens was 148. This compound displayed a bioavailability in data set [7] of 5.8%.
For `O=C(Nc1ccc(F)cc1)Nc1ccc(Nc2nc(-c3ccccc3)nc3c2nnn3Cc2ccccc2)cc1`, the figures for the Ki on Adenosine receptor A1 [8], at Adenosine receptor A3 and at Adenosine receptor A2a [9] were 107 nM, 92 nM and 167 nM, respectively.
Consider `Cn1c(=O)c2c(ncn2C)n(C)c1=O` [CAFFEINE], for which the inhibition in vivo at 3 mg/kg in the data set on Rattus norvegicus [10] was determined as 35%; in the data set on Rattus norvegicus [11] it was 14%.
`Nc1nc(N/N=C/C2CCCCC2)nc2c1ncn2[C@@H]1O[C@H](CO)[C@@H](O)[C@H]1O` [BINODENOSON] came in with an ED50 in the data set listed under Rattus norvegicus [12] of 0.31 mg.
As for `CCNC(=O)[C@H]1O[C@@H](n2cnc3c(N)nc(NCCc4ccc(CCC(=O)NCCN)cc4)nc32)[C@H](O)[C@@H]1O`, in the data set with Rattus norvegicus [13], the ID90 came out at 3.4 mg/kg. In addition, in the data set with Rattus norvegicus [13] (Rattus norvegicus, po, read-out: ID50 (the source's name)), the ED50 stood at 0.5 mg/kg.
On to `COc1ccc(N2CCOCC2)c2sc(NC(=O)N3CCC(C)(O)CC3)nc12` [TOZADENANT], for which the clearance is 11 mL/min/kg in [14] and 8 mL/min/kg in data set [17]. The same compound registered an inhibition constant Ki on Adenosine receptor A1 [4] of 1350 nM. For the same compound, the Vd stood at 1.2 L/kg in data set [15] and 1.4 L/kg in data set [18]. Moreover, the half-life in data set [16] was 2.2 h; in [19] it was 4 h.
With `Cc1cc(-c2nnc(N)nc2-c2ccccc2)cc(C(F)(F)F)n1`, the Ki on Adenosine receptor A1 [4] came to 31 nM. In [20], the Kp at 0.5 h was determined as 3.2. Also, the ED50 in the data set filed under Rattus norvegicus [21] and in the data set filed under Rattus norvegicus [22] was 0.2 mg/kg throughout.

As usually defined, the EC50 is the concentration needed to bring the measured effect to its halfway point. Read a low EC50 as an effect from little substance. A word on the Ki: it is the dissociation constant of the complex between target and ligand, obtained from inhibition or displacement. The bioavailability is the share of a dose that reaches the circulation, judged against a reference dose that is usually intravenous. A higher bioavailability goes with much systemic uptake. One may read the inhibition in vivo as the drop in the measured response relative to a control, in per cent. A word on the clearance: it is a measure of how efficiently the substance is removed, as volume per time. The Vd is a proportionality between amount in the body and measured concentration, not a real space. High values mean wide distribution into tissue, low ones little distribution into tissue. For orientation: half-life means the time needed for the level to fall by half in the phase considered. The low end stands for fast loss, the high end for slow loss.
